Key:
pSTAT3 (pY705-STAT3) = target: T1, pSTAT3 (pY705-STAT3) (Homo sapiens, UniProt P40763); test: MSD-pSTAT-PBMC Assay (pSTAT3, IL-6 stimulated); type: cell-based; conditions: PBMC, compound 3 hrs, then 10 ng/mL IL-6 for 10 min; MSD pY705-STAT3; read-out: pSTAT3
T1 construct: host or cells: cryopreserved PBMC
How it was run: (§1)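 Human PBMCs (50,000 cells/well for STAT3, 25,000 for STAT6) treated with compound 3 h, then stimulated 10 min with 10 ng/mL IL-6 or 1 ng/mL IL-4. Lysate pSTAT3 (pY705) or pSTAT6 (pY641) measured by MSD sandwich electrochemiluminescence. Signal minus unstimulated, normalized to DMSO; IC50 by variable-slope nonlinear regression.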

pSTAT6 (pY641-STAT6) = target: T2, pSTAT6 (pY641-STAT6) (Homo sapiens, UniProt P42226); test: MSD-pSTAT-PBMC Assay (pSTAT6, IL-4 stimulated); type: cell-based; conditions: compound 3 hrs, then 1 ng/mL IL-4 for 10 min
T2 construct: host or cells: cryopreserved PBMC
T2 sequence (P42226 1-847): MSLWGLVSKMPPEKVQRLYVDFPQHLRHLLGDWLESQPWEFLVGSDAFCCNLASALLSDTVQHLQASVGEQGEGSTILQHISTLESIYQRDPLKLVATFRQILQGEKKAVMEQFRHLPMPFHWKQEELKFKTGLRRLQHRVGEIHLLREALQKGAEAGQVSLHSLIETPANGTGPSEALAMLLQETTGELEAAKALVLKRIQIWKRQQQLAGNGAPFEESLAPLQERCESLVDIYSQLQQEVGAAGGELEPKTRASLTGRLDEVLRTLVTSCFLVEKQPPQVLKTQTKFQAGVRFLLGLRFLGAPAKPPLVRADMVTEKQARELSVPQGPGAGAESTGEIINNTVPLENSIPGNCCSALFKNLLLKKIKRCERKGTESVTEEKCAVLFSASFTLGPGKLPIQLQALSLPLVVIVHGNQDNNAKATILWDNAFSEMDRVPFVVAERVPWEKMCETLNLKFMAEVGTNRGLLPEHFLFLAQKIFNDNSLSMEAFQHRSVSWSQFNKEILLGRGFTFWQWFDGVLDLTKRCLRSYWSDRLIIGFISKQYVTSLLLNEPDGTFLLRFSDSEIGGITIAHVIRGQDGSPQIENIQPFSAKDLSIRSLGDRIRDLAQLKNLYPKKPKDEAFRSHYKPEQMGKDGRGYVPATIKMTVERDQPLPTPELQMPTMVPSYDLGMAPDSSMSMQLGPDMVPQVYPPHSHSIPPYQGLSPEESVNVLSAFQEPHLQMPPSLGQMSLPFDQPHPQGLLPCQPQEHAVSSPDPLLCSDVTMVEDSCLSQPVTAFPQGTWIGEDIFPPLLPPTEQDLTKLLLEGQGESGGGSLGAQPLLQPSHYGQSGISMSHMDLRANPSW
How it was run: as §1

T1 sequence (P40763 whole entry): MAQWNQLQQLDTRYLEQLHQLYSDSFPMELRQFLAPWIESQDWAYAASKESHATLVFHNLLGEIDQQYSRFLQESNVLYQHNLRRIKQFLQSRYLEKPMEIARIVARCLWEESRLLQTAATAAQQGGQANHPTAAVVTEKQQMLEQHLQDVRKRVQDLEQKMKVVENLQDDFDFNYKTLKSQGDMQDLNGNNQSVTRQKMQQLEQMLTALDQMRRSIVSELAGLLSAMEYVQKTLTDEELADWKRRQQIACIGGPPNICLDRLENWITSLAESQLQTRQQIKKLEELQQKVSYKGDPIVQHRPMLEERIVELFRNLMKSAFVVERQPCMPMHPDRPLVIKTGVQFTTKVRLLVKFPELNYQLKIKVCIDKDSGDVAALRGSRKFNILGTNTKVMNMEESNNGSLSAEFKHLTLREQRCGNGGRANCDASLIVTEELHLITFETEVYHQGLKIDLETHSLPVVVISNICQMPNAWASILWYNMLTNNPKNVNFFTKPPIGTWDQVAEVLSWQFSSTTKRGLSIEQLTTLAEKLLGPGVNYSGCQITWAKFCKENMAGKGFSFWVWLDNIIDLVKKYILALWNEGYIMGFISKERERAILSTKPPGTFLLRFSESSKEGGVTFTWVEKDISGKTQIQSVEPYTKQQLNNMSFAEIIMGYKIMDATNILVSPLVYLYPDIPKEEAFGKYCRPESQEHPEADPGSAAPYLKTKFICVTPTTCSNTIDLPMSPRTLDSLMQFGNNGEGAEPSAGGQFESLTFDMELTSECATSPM

| SMILES | IC50 (pSTAT3 (pY705-STAT3)) [nM] | IC50 (pSTAT6 (pY641-STAT6)) [nM] |
| --- | --- | --- |
| CC(C)(C)C(=O)OCOP(=O)(Cc1ccc2sc(C(=O)N[C@H]3C[C@@H]4C[C@@H]4C[C@H]4CC[C@@H](C(=O)N5CC(n6ccnc6)C5)N4C3=O)cc2c1)OCOC(=O)C(C)(C)C [Compound 156, ((((2-(((3S,6S,7aS, 8aR,9aR)-3-(3-(1H-imidazol-1-yl)azetidine-1-carbonyl)-5-oxodecahydro-1H-cyclopropa[d]pyrrolo[1,2-a]azocin-6-yl)carbamoyl)benzo[b]thiophen-5-yl)methyl)phosphoryl)bis(oxy)) bis(methylene) bis(2,2-dimethyl-propanoate)] | < 100 | > 3000 |
| CC(C)OC(=O)[C@H](Cc1ccccc1)NP(=O)(Oc1ccccc1)C(F)(F)c1ccc2sc(C(=O)N[C@H]3C[C@@H]4C[C@@H]4C[C@H]4CC[C@@H](C(=O)N5CC(C(=O)N6CCOCC6)C5)N4C3=O)cc2c1 (stereo partly drawn) [Compound 165, isopropyl ((difluoro(2-(((3S,6S,7aS, 8aR,9aR)-3-(3-(morpholine-4-carbonyl)azetidine-1-carbonyl)-5-oxodecahydro-1H-cyclopropa[d]pyrrolo[1,2-a]azocin-6-yl)carbamoyl)benzo[b]thiophen-5-yl)methyl) (phenoxy)phosphoryl)-L-phenylalaninate] | 1000 to 3000 | > 3000 |
| CC(C)CC(=O)SCCOP(=O)(OCOC(=O)OC(C)C)C(F)(F)c1ccc2sc(C(=O)N[C@H]3C[C@@H]4C[C@@H]4C[C@H]4CC[C@@H](C(=O)N5CC(C(=O)N6CCOCC6)C5)N4C3=O)cc2c1 (stereo partly drawn) [Compound 141, S-(2-(((difluoro(2-(((3S,6S,7aS, 8aR,9aR)-3-(3-(morpholine-4-carbonyl)azetidine-1-carbonyl)-5-oxodecahydro-1H-cyclopropa [d]pyrrolo[1,2-a]azocin-6-yl)carbamoyl)benzo[b]thiophen-5-yl)methyl)(((iso-propoxy-carbonyl)oxy)methoxy)phos-phoryl)oxy)ethyl) 3-methylbutane thioate] | < 100 | 1000 to 3000 |

Second part, the compound after the results:

| IC50 (pSTAT3 (pY705-STAT3)) [nM] | IC50 (pSTAT6 (pY641-STAT6)) [nM] | SMILES |
| --- | --- | --- |
| 100 to 1000 | > 3000 | O=C(OCOP(=O)(OCOC(=O)OC1CCOCC1)C(F)(F)c1ccc2sc(C(=O)N[C@H]3C[C@@H]4C[C@@H]4C[C@H]4CC[C@@H](C(=O)N5CC(C(=O)N6CCOCC6)C5)N4C3=O)cc2c1)OC1CCOCC1 [Compound 162, (((difluoro(2-(((3S,6S,7aS, 8aR,9aR)-3-(3-(morpholine-4-carbonyl)azetidine-1-carbonyl)-5-oxodecahydro-1H-cyclopropa [d]pyrrolo[1,2-a]azocin-6-yl)carbamoyl)benzo[b]thiophen-5-yl)methyl)phosphoryl)bis(oxy)) bis(methylene) bis(tetrahydro-2H-pyran-4-yl) bis(carbonate)] |
| < 100 | > 3000 | CC(C)(C)C(=O)SCCOP(=O)(OCCSC(=O)C(C)(C)C)C(F)(F)c1ccc2sc(C(=O)NC3CC4CC4CC4CCC(C(=O)N5CC(n6ccnc6)C5)N4C3=O)cc2c1 [Compound 180, S,S′-(((((2-(((3S,6S,7aR, 8aS,9aR)-3-(3-(1H-imidazol-1-yl)azetidine-1-carbonyl)-5-oxodecahydro-1H-cyclopropa[d]pyrrolo[1,2-a]azocin-6-yl)carbamoyl)benzo[b]thiophen-5-yl)difluoromethyl)phosphoryl)bis(oxy))bis(ethane-2,1-diyl)) bis(2,2-dimethyl-propanethioate)] |
| < 100 | > 3000 | O=C(OCOP(=O)(OCOC(=O)OC1CCOCC1)C(F)(F)c1ccc2sc(C(=O)N[C@H]3C[C@H]4C[C@H]4C[C@H]4CC[C@@H](C(=O)N5CC(c6cccnc6)C5)N4C3=O)cc2c1)OC1CCOCC1 [Compound 166, (((difluoro(2-(((3S,6S,7aR, 8aS,9aR)-5-oxo-3-(3-(pyridin-3-yl)azetidine-1-carbonyl)decahydro-1H-cyclopropa[d]pyrrolo[1,2-a]azocin-6-yl)carbamoyl)benzo[b]thiophen-5-yl)methyl)phosphoryl)bis(oxy)) bis(methylene) bis(tetrahydro-2H-pyran-4-yl) bis(carbonate)] |

From US20250215030A1, “STAT MODULATORS AND USES THEREOF” (Recludix Pharma, Inc., priority 2022, published 2025)
